Data as given in PubChem BioAssay (NCI).
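Protocol summary: plate cells (96-well), add compound at 5 concentrations, incubate 48 h, interpolate endpoints linearly. TGI denotes the concentration required for complete inhibition of growth.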

Assays:
Test in all cases: NCI tumour cell line growth inhibition, 48 h
[1] = tested on: SF-539 CNS
[2] = tested on: MOLT-4 leukemia
[3] = tested on: M14 melanoma
[4] = tested on: K-562 leukemia
[5] = tested on: CAKI-1 renal
[6] = tested on: SK-MEL-28 melanoma
[7] = tested on: SN12C renal
[8] = tested on: OVCAR-8 ovarian
[9] = tested on: OVCAR-5 ovarian
[10] = tested on: CCRF-CEM leukemia
[11] = tested on: RPMI-8226 leukemia
[12] = tested on: PC-3 prostate

Cc1cccc(-n2c(N)c(-c3nc4ccccc4[nH]3)sc2=S)c1
TGI [1]: 37 µM | TGI [2]: 54.6 µM | TGI [3]: 48.4 µM | TGI [4]: > 100 µM | TGI [5]: 90.5 µM | TGI [6]: > 100 µM | TGI [7]: 86.9 µM | TGI [8]: 72 µM | TGI [9]: > 100 µM | TGI [10]: > 100 µM | TGI [11]: 57.4 µM

COc1ccc(OC)c(NCC(=O)Nn2cnc3ccc(S(=O)(=O)Nc4cc(OC)ccc4OC)cc3c2=O)c1
TGI [1]: > 100 µM | TGI [12]: > 100 µM | TGI [2]: > 100 µM | TGI [3]: > 100 µM | TGI [4]: > 100 µM | TGI [5]: > 100 µM | TGI [6]: > 100 µM | TGI [7]: > 100 µM | TGI [8]: > 100 µM | TGI [9]: > 100 µM | TGI [10]: > 100 µM

CCCCn1c(CSc2ccc(Cl)cc2)c(C(=O)OCC)c2cc(OC)c(Br)cc21
TGI [12]: > 100 µM | TGI [2]: > 100 µM | TGI [3]: > 100 µM | TGI [4]: > 100 µM | TGI [5]: 75.9 µM | TGI [6]: > 100 µM | TGI [7]: > 100 µM | TGI [8]: > 100 µM | TGI [9]: > 100 µM | TGI [10]: > 100 µM | TGI [11]: > 100 µM

Cc1ccc(C2(c3ccc(Cl)cc3)c3ccccc3C3=NCCN32)cc1 (configuration not stated)
TGI [12]: 21.6 µM | TGI [2]: 20.9 µM | TGI [3]: 16.2 µM | TGI [4]: > 100 µM | TGI [5]: 37.9 µM | TGI [6]: 35.9 µM | TGI [7]: 29.7 µM | TGI [8]: 29.4 µM | TGI [9]: 26 µM | TGI [10]: 19.5 µM | TGI [11]: 28.9 µM

COc1ccc(/C(=N\NC(=O)NN)C(c2ccc(OC)cc2)C2(O)C(=O)Nc3c(Cl)cc(Cl)cc32)cc1 (configuration not stated)
TGI [2]: > 100 µM | TGI [3]: > 100 µM | TGI [6]: > 100 µM | TGI [7]: > 100 µM | TGI [8]: > 100 µM | TGI [9]: > 100 µM | TGI [10]: > 100 µM | TGI [11]: > 100 µM

CCOC(=O)c1nc2ccc(C(F)(F)F)cc2nc1Nc1cc(OC)c(OC)c(OC)c1
TGI [1]: > 100 µM | TGI [12]: > 100 µM | TGI [2]: > 100 µM | TGI [3]: > 100 µM | TGI [4]: > 100 µM | TGI [6]: > 100 µM | TGI [7]: > 100 µM | TGI [8]: > 100 µM | TGI [9]: > 100 µM | TGI [10]: > 100 µM | TGI [11]: > 100 µM

O=C(CN(C(=O)OC12CC3CC(CC(C3)C1)C2)C(=O)OC12CC3CC(CC(C3)C1)C2)Oc1ccc([N+](=O)[O-])cc1
TGI [1]: > 100 µM | TGI [12]: > 100 µM | TGI [2]: > 100 µM | TGI [3]: > 100 µM | TGI [4]: > 100 µM | TGI [5]: > 100 µM | TGI [6]: > 100 µM | TGI [7]: > 100 µM | TGI [8]: > 100 µM | TGI [9]: > 100 µM | TGI [10]: > 100 µM

CCOC(=O)C(=O)C=P(c1ccccc1)(c1ccccc1)c1ccccc1
TGI [1]: > 100 µM | TGI [2]: > 100 µM | TGI [3]: > 100 µM | TGI [4]: > 100 µM | TGI [5]: > 100 µM | TGI [6]: > 100 µM | TGI [7]: > 100 µM | TGI [8]: > 100 µM | TGI [9]: > 100 µM | TGI [10]: > 100 µM | TGI [11]: > 100 µM

CC(Oc1ccccc1Cl)C(=O)NN1C(=O)CC(=O)N(c2ccccc2)C1=S (configuration not stated)
TGI [1]: > 100 µM | TGI [12]: > 100 µM | TGI [2]: > 100 µM | TGI [3]: > 100 µM | TGI [4]: > 100 µM | TGI [5]: > 100 µM | TGI [6]: > 100 µM | TGI [7]: > 100 µM | TGI [8]: > 100 µM | TGI [9]: > 100 µM | TGI [11]: > 100 µM

C1CSCCSCCCSC2CCCCC2SC1 (configuration not stated)
TGI [1]: > 100 µM | TGI [12]: > 100 µM | TGI [2]: > 100 µM | TGI [3]: > 100 µM | TGI [4]: > 100 µM | TGI [6]: > 100 µM | TGI [7]: > 100 µM | TGI [8]: > 100 µM | TGI [9]: > 100 µM | TGI [10]: > 100 µM | TGI [11]: > 100 µM

CCOC(=O)C1SC(=Nc2ccc(OC)c(OC)c2)N=C1C (configuration not stated)
TGI [1]: > 100 µM | TGI [3]: > 100 µM | TGI [4]: > 100 µM | TGI [5]: > 100 µM | TGI [6]: > 100 µM | TGI [7]: > 100 µM | TGI [8]: > 100 µM | TGI [9]: > 100 µM | TGI [10]: 59 µM

C=CCNC(=S)N1CC(C)C(=O)Nc2cc(Cl)ccc21 (configuration not stated)
TGI [1]: > 100 µM | TGI [2]: > 100 µM | TGI [3]: > 100 µM | TGI [4]: > 100 µM | TGI [5]: > 100 µM | TGI [6]: > 100 µM | TGI [7]: > 100 µM | TGI [8]: > 100 µM | TGI [9]: > 100 µM | TGI [11]: > 100 µM

O=C(Nc1ccc(Cl)cc1C(F)(F)F)C(=O)C1CCCS1(=O)=O (configuration not stated)
TGI [1]: > 100 µM | TGI [2]: > 100 µM | TGI [3]: > 100 µM | TGI [4]: > 100 µM | TGI [5]: > 100 µM | TGI [6]: > 100 µM | TGI [7]: > 100 µM | TGI [8]: > 100 µM | TGI [9]: > 100 µM | TGI [10]: > 100 µM | TGI [11]: > 100 µM

CCOP(=O)(OCC)/C(C#N)=C/c1cccn1C(C)C
TGI [1]: > 100 µM | TGI [12]: > 100 µM | TGI [2]: > 100 µM | TGI [3]: > 100 µM | TGI [4]: > 100 µM | TGI [5]: > 100 µM | TGI [6]: > 100 µM | TGI [7]: > 100 µM | TGI [8]: > 100 µM | TGI [9]: > 100 µM

COC(=O)C1CCC(=O)N1C(c1cc(OC)c(OC)c(OC)c1)c1cc(OC)c(OC)c(OC)c1 (configuration not stated)
TGI [1]: > 100 µM | TGI [12]: > 100 µM | TGI [2]: > 100 µM | TGI [3]: > 100 µM | TGI [4]: > 100 µM | TGI [6]: > 100 µM | TGI [7]: > 100 µM | TGI [8]: > 100 µM | TGI [9]: > 100 µM | TGI [11]: > 100 µM

Clc1cc2nn(C3CCCCO3)nc2cc1Cl (configuration not stated)
TGI [1]: > 100 µM | TGI [12]: > 100 µM | TGI [2]: > 100 µM | TGI [3]: > 100 µM | TGI [4]: > 100 µM | TGI [5]: > 100 µM | TGI [7]: > 100 µM | TGI [8]: > 100 µM | TGI [9]: > 100 µM | TGI [10]: > 100 µM

N#CC(/C(CCC(=O)Nc1ccc(Cl)cc1)=N/NC(=O)c1cc2ccccc2cc1O)c1ccccc1 (configuration not stated)
TGI [2]: 94.9 µM | TGI [3]: > 100 µM | TGI [6]: > 100 µM | TGI [7]: > 100 µM | TGI [8]: > 100 µM | TGI [9]: 60.6 µM | TGI [10]: 49.4 µM | TGI [11]: > 100 µM

CSC1NC(c2ccccc2)=C(C#N)C(=O)N1C1OCC(OC(C)=O)C(OC(C)=O)C1OC(C)=O (configuration not stated)
TGI [1]: > 100 µM | TGI [12]: > 100 µM | TGI [2]: > 100 µM | TGI [3]: > 100 µM | TGI [4]: > 100 µM | TGI [5]: > 100 µM | TGI [6]: > 100 µM | TGI [7]: > 100 µM | TGI [8]: > 100 µM | TGI [9]: > 100 µM | TGI [11]: > 100 µM

S=C1NC2=C(COc3ccccc32)C(c2ccc(Cl)cc2)N1 (configuration not stated)
TGI [1]: 34.9 µM | TGI [12]: 26.2 µM | TGI [2]: 38.7 µM | TGI [3]: 34.5 µM | TGI [4]: 38.1 µM | TGI [6]: 46.8 µM | TGI [7]: 8.64 µM | TGI [8]: 41.7 µM | TGI [9]: 30.7 µM | TGI [10]: 64.7 µM | TGI [11]: 22.4 µM

COc1ccc(/C(C)=N/NC(=O)c2ccncc2)c(OC)c1
TGI [1]: > 10 µM | TGI [2]: > 10 µM | TGI [3]: > 10 µM | TGI [4]: > 10 µM | TGI [5]: > 10 µM | TGI [6]: > 10 µM | TGI [7]: > 10 µM | TGI [8]: > 10 µM | TGI [10]: > 10 µM | TGI [11]: > 10 µM
